Reference: patent US20240376084A1, “INHIBITORS OF ALPHA-HEMOLYSIN OF STAPHYLOCOCCUS AUREUS” (Helmholtz-Zentrum Fur Infektionsforschung GmbH, priority 2021, published 2024)

How the values were obtained:
[1] = molecular target: hemolysin alpha from Staphylococcus aureus (Staphylococcus aureus, UniProt P09616); experiment: cell-based
[2] = molecular target: S. aureus Alpha hemolysin (Staphylococcus aureus, UniProt P09616); experiment: cell-based; details: A549-LDH Assay activity
S. aureus Alpha hemolysin, sequence (P09616 27-319 limits assumed): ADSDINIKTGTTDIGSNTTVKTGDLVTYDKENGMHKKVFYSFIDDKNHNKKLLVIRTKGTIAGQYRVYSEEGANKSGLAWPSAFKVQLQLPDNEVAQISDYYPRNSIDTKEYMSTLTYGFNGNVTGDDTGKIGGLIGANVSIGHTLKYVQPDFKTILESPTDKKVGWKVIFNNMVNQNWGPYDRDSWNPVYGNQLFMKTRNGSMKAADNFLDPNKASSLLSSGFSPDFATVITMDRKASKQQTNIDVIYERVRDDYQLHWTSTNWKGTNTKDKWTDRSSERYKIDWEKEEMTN

hemolysin alpha from Staphylococcus aureus, sequence (P09616 27-319 limits assumed): as above

`Cc1cc2[nH]c(=O)c(=O)[nH]c2cc1S(=O)(=O)Nc1ccc(-c2cccc(C(C)C)c2)c(Cl)c1` [Compound 39, N-(2-chloro-3′-isopropyl-[1,1′-biphenyl]-4-yl)-7-methyl-2,3-dioxo-1,2,3,4-tetrahydroquinoxaline-6-sulfonamide] gave an IC50 [1] of 30 to 100 nM and an EC50 [2] of 1000 to 6000 nM.

`Cc1cc2[nH]c(=O)c(=O)[nH]c2cc1S(=O)(=O)Nc1ccc(Cc2ccccc2)c(Cl)c1` [Compound 321, N-(4-benzyl-3-chloro-phenyl)-7-methyl-2,3-dioxo-1,4-dihydroquinoxaline-6-sulfonamide] showed an EC50 [1] of 100 to 1000 nM and an EC50 [2] of 100 to 1000 nM.

`COc1cc(NS(=O)(=O)c2cc3[nH]c(=O)c(=O)[nH]c3cc2C)ccc1Br` [Compound 121, N-(4-bromo-3-methoxyphenyl)-7-methyl-2,3-dioxo-1,2,3,4-tetrahydroquinoxaline-6-sulfonamide] showed an IC50 [1] of 100 to 1000 nM and an EC50 [2] of 1000 to 6000 nM.

With `Cc1nc2ccc(-c3ccc(NS(=O)(=O)c4cc5[nH]c(=O)c(=O)[nH]c5cc4C)cc3Cl)cc2o1` [Compound 269, N-[3-chloro-4-(2-methyl-1,3-benzoxazol-6-yl)phenyl]-7-methyl-2,3-dioxo-1,4-dihydroquinoxaline-6-sulfonamide] the EC50 [1] was under 30 nM and the EC50 [2] was under 30 nM.

`Cc1cc(-c2ccc(NS(=O)(=O)c3cc4[nH]c(=O)c(=O)[nH]c4cc3C)cc2Cl)ccn1` [Compound 140, N-(3-chloro-4-(2-methylpyridin-4-yl)phenyl)-7-methyl-2,3-dioxo-1,2,3,4-tetrahydroquinoxaline-6-sulfonamide] was tested, and the IC50 [1] was 100 to 1000 nM and the EC50 [2] was 100 to 1000 nM.

`Cc1cc2[nH]c(=O)c(=O)[nH]c2cc1S(=O)(=O)Nc1ccc(-c2cccc(N3CCC3)c2)c(Cl)c1` [Compound 206, N-(3′-(azetidin-1-yl)-2-chloro-[1,1′-biphenyl]-4-yl)-7-methyl-2,3-dioxo-1,2,3,4-tetrahydroquinoxaline-6-sulfonamide] showed an EC50 [1] of under 30 nM and an EC50 [2] of 30 to 100 nM.

`O=c1[nH]c2cc(F)c(S(=O)(=O)Nc3ccc(-c4ccc5c(c4)NCC5)c(Cl)c3)cc2[nH]c1=O` [Compound 10, N-(3-chloro-4-(indolin-6-yl)phenyl)-7-fluoro-2,3-dioxo-1,2,3,4-tetrahydroquinoxaline-6-sulfonamide] was tested, and the IC50 [1] was under 30 nM and the EC50 [2] was 100 to 1000 nM.

Compound `Cc1cc2[nH]c(=O)c(=O)[nH]c2cc1S(=O)(=O)Nc1ccc(-c2ccc(F)c(Cl)c2F)c(Cl)c1` [Compound 2, N-(2,3′-dichloro-2′,4′-difluoro-[1,1′-biphenyl]-4-yl)-7-methyl-2,3-dioxo-1,2,3,4-tetrahydroquinoxaline-6-sulfonamide] has an IC50 [1] of under 30 nM and an EC50 [2] of 100 to 1000 nM.

Compound `Cc1cc2[nH]c(=O)c(=O)[nH]c2cc1S(=O)(=O)Nc1ccc(N2CCOC[C@H]2C)c(Cl)c1` [Compound 243, (R)-N-(3-chloro-4-(3-methylmorpholino)phenyl)-7-methyl-2,3-dioxo-1,2,3,4-tetrahydroquinoxaline-6-sulfonamide] has an EC50 [1] of 1000 to 3500 nM and an EC50 [2] of 100 to 1000 nM.

`Cc1cc2[nH]c(=O)c(=O)[nH]c2cc1S(=O)(=O)Nc1ccc2c(c1)CCCC2` [Compound 54, 7-methyl-2,3-dioxo-N-(5,6,7,8-tetrahydronaphthalen-2-yl)-1,2,3,4-tetrahydroquinoxaline-6-sulfonamide] showed an IC50 [1] of 30 to 100 nM and an EC50 [2] of 100 to 1000 nM.

`CCc1cc2[nH]c(=O)c(=O)[nH]c2cc1S(=O)(=O)Nc1ccc(Br)c(Cl)c1` [Compound 149, N-(4-bromo-3-chlorophenyl)-7-ethyl-2,3-dioxo-1,2,3,4-tetrahydroquinoxaline-6-sulfonamide] was tested, and the IC50 [1] was 100 to 1000 nM and the EC50 [2] was 100 to 1000 nM.

Work on `Cc1cc2[nH]c(=O)c(=O)[nH]c2cc1S(=O)(=O)Nc1ccc(-c2ccc(C(N)=O)cc2)c(Cl)c1` [Compound 314, 4-[2-chloro-4-[(7-methyl-2,3-dioxo-1,4-dihydroquinoxalin-6-yl)sulfonylamino]phenyl]benzamide] yielded an EC50 [1] of 100 to 1000 nM and an EC50 [2] of 100 to 1000 nM.

`Cc1cc2[nH]c(=O)c(=O)[nH]c2cc1S(=O)(=O)Nc1ccc(-c2ccc3c(c2)CCCN3)c(Cl)c1` [Compound 343, N-[3-chloro-4-(1,2,3,4-tetrahydroquinolin-6-yl)phenyl]-7-methyl-2,3-dioxo-1,4-dihydroquinoxaline-6-sulfonamide] showed an EC50 [1] of under 30 nM and an EC50 [2] of 100 to 1000 nM.

For `O=c1[nH]c2cc(Cl)c(S(=O)(=O)Nc3ccc(C(F)(F)F)c(Cl)c3)cc2[nH]c1=O` [Compound 143, 7-chloro-N-(3-chloro-4-(trifluoromethyl)phenyl)-2,3-dioxo-1,2,3,4-tetrahydroquinoxaline-6-sulfonamide], the IC50 [1] was 100 to 1000 nM and the EC50 [2] was 1000 to 6000 nM.

Compound `Cc1cc2[nH]c(=O)c(=O)[nH]c2cc1S(=O)(=O)Nc1cc(C)c(-c2ccoc2)c(C)c1` [Compound 107, N-(4-(furan-3-yl)-3,5-dimethylphenyl)-7-methyl-2,3-dioxo-1,2,3,4-tetrahydroquinoxaline-6-sulfonamide] has an IC50 [1] of 100 to 1000 nM and an EC50 [2] of 30 to 100 nM.

In the case of `Cc1cc2[nH]c(=O)c(=O)[nH]c2cc1S(=O)(=O)Nc1ccc(C2=CCCCC2)c(Br)c1` [Compound 299, N-[3-bromo-4-(cyclohexen-1-yl)phenyl]-7-methyl-2,3-dioxo-1,4-dihydroquinoxaline-6-sulfonamide], the EC50 [1] is reported as 30 to 100 nM and the EC50 [2] is reported as 30 to 100 nM.

In the case of `CC(C)c1cc2[nH]c(=O)c(=O)[nH]c2cc1S(=O)(=O)Nc1ccc(C(F)(F)F)cc1` [Compound 152, 7-isopropyl-2,3-dioxo-N-(4-(trifluoromethyl)phenyl)-1,2,3,4-tetrahydroquinoxaline-6-sulfonamide], the IC50 [1] is reported as 100 to 1000 nM and the EC50 [2] is reported as 30 to 100 nM.

Work on `CC(=O)Nc1cc(-c2ccc(NS(=O)(=O)c3cc4[nH]c(=O)c(=O)[nH]c4cc3C)cc2C(F)(F)F)ccc1O` [Compound 346, N-[2-hydroxy-5-[4-[(7-methyl-2,3-dioxo-1,4-dihydroquinoxalin-6-yl)sulfonylamino]-2-(trifluoromethyl)phenyl]phenyl]acetamide] yielded an EC50 [1] of 30 to 100 nM and an EC50 [2] of 100 to 1000 nM.

For `Cc1cc2[nH]c(=O)c(=O)[nH]c2cc1S(=O)(=O)Nc1ccc(-c2ccccc2N(C)C)c(Cl)c1` [Compound 136, N-(2-chloro-2′-(dimethylamino)-[1,1′-biphenyl]-4-yl)-7-methyl-2,3-dioxo-1,2,3,4-tetrahydroquinoxaline-6-sulfonamide], the IC50 [1] was 100 to 1000 nM and the EC50 [2] was 100 to 1000 nM.

`Cc1cc2[nH]c(=O)c(=O)[nH]c2cc1S(=O)(=O)Nc1ccc(-n2cncn2)cc1` [Compound 265, 7-methyl-2,3-dioxo-N-[4-(1,2,4-triazol-1-yl)phenyl]-1,4-dihydroquinoxaline-6-sulfonamide] gave an EC50 [1] of 1000 to 3500 nM and an EC50 [2] of 1000 to 6000 nM.

For `Cc1cc2[nH]c(=O)c(=O)[nH]c2cc1S(=O)(=O)Nc1cc(C)c(-c2cccs2)c(C)c1` [Compound 58, N-(3,5-dimethyl-4-(thiophen-2-yl)phenyl)-7-methyl-2,3-dioxo-1,2,3,4-tetrahydroquinoxaline-6-sulfonamide], the IC50 [1] was 30 to 100 nM and the EC50 [2] was 1000 to 6000 nM.

For `CCOC(=O)c1ccccc1-c1ccc(NS(=O)(=O)c2cc3[nH]c(=O)c(=O)[nH]c3cc2C)cc1` [Compound 120, ethyl 4′-((7-methyl-2,3-dioxo-1,2,3,4-tetrahydroquinoxaline)-6-sulfonamido)-[1,1′-biphenyl]-2-carboxylate], the IC50 [1] was 100 to 1000 nM and the EC50 [2] was 1000 to 6000 nM.

`Cc1ccccc1-c1c(C)cc(NS(=O)(=O)c2cc3[nH]c(=O)c(=O)[nH]c3cc2C)cc1C` [Compound 125, 7-methyl-2,3-dioxo-N-(2,2′,6-trimethyl-[1,1′-biphenyl]-4-yl)-1,2,3,4-tetrahydroquinoxaline-6-sulfonamide] was tested, and the IC50 [1] was 100 to 1000 nM and the EC50 [2] was 1000 to 6000 nM.

Compound `Cc1cc2[nH]c(=O)c(=O)[nH]c2cc1S(=O)(=O)Nc1ccc(-n2cncn2)c(Cl)c1` [Compound 263, N-[3-chloro-4-(1,2,4-triazol-1-yl)phenyl]-7-methyl-2,3-dioxo-1,4-dihydroquinoxaline-6-sulfonamide] has an EC50 [1] of 1000 to 3500 nM and an EC50 [2] of 100 to 1000 nM.

`Cc1cc2[nH]c(=O)c(=O)[nH]c2cc1S(=O)(=O)Nc1ccc(Cl)cc1` [Compound 177, N-(4-chlorophenyl)-7-methyl-2,3-dioxo-1,2,3,4-tetrahydroquinoxaline-6-sulfonamide] gave an IC50 [1] of 100 to 1000 nM and an EC50 [2] of 100 to 1000 nM.

`O=c1[nH]c2cc(OCC(F)(F)F)c(S(=O)(=O)Nc3ccc(OC(F)(F)F)cc3)cc2[nH]c1=O` [Compound 276, 2,3-dioxo-7-(2,2,2-trifluoroethoxy)-N-[4-(trifluoromethoxy)phenyl]-1,4-dihydroquinoxaline-6-sulfonamide] was tested, and the EC50 [1] was 30 to 100 nM and the EC50 [2] was under 30 nM.

`O=c1[nH]c2cc(Cl)c(S(=O)(=O)Nc3ccc(-c4cccnc4)c(Cl)c3)cc2[nH]c1=O` [Compound 48, 7-chloro-N-(3-chloro-4-(pyridin-3-yl)phenyl)-2,3-dioxo-1,2,3,4-tetrahydroquinoxaline-6-sulfonamide] showed an IC50 [1] of 30 to 100 nM and an EC50 [2] of 1000 to 6000 nM.

With `Cc1cc2[nH]c(=O)c(=O)[nH]c2cc1S(=O)(=O)Nc1ccc(-c2ccc3[nH]ncc3c2)c(Cl)c1` [Compound 273, N-[3-chloro-4-(1H-indazol-5-yl)phenyl]-7-methyl-2,3-dioxo-1,4-dihydroquinoxaline-6-sulfonamide] the EC50 [1] was 30 to 100 nM and the EC50 [2] was 100 to 1000 nM.

`Cc1cc2ccc(-c3ccc(NS(=O)(=O)c4cc5[nH]c(=O)c(=O)[nH]c5cc4C)cc3C(F)(F)F)cc2[nH]1` [Compound 364, 7-methyl-N-[4-(2-methyl-1H-indol-6-yl)-3-(trifluoromethyl)phenyl]-2,3-dioxo-1,4-dihydroquinoxaline-6-sulfonamide] showed an EC50 [1] of under 30 nM and an EC50 [2] of under 30 nM.

Work on `Cc1cc2[nH]c(=O)c(=O)[nH]c2cc1S(=O)(=O)Nc1ccc(-c2cccc(Br)c2)c(Cl)c1` [Compound 310, N-[4-(3-bromophenyl)-3-chloro-phenyl]-7-methyl-2,3-dioxo-1,4-dihydroquinoxaline-6-sulfonamide] yielded an EC50 [1] of under 30 nM and an EC50 [2] of 100 to 1000 nM.

For `CC(C)c1cc2[nH]c(=O)c(=O)[nH]c2cc1S(=O)(=O)Nc1ccc(-c2cccc(N(C)C)c2)c(Cl)c1` [Compound 109, N-(2-chloro-3′-(dimethylamino)-[1,1′-biphenyl]-4-yl)-7-isopropyl-2,3-dioxo-1,2,3,4-tetrahydroquinoxaline-6-sulfonamide], the IC50 [1] was 100 to 1000 nM and the EC50 [2] was 100 to 1000 nM.
